Structures are written as SMILES.

The source of these data is patent US20260199325A1, “NOVEL SUBSTITUTED PYRAZINE-CARBOXAMIDE-IMIDAZOPYRIDINE DERIVATIVES” (Boehringer Ingelheim International GmbH, priority 2022, published 2026).

For the test, the target named is T1, human metabotropic Glutamate 4 receptor (Homo sapiens, UniProt Q14833).
T1 construct: expressed in transfected cells; host or cells: HEK293
T1 sequence (Q14833 33-912): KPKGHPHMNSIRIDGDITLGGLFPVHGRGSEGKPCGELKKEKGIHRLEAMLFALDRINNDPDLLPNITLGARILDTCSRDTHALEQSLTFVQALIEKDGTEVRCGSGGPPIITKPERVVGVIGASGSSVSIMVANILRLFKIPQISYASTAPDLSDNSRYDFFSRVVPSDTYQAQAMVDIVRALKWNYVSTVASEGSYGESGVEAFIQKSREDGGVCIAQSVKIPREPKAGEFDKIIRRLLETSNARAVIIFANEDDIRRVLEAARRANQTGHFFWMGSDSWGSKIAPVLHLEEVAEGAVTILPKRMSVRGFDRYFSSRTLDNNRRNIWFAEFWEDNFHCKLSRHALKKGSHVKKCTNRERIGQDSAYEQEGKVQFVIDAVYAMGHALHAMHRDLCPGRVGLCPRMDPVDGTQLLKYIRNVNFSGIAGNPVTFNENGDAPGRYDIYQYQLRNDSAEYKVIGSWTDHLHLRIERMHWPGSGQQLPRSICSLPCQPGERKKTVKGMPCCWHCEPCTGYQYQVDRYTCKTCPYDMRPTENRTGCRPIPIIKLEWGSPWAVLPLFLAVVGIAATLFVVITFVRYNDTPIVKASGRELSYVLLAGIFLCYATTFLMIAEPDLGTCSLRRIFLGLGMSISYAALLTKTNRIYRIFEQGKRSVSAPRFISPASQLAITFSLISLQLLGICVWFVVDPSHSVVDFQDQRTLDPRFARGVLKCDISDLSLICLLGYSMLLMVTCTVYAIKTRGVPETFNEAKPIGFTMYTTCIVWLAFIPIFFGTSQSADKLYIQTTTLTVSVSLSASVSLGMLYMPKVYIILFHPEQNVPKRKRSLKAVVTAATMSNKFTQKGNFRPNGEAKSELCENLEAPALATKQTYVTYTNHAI
As to the kind of experiment: In vitro testing of mGluR4 potency (Assay A), cAMP HTRF in HEK293 cells. Conditions: Table 2; HEK293 cell overexpressing human mGluR4; 10 uM L-Glutamic acid, 1 uM forskolin. In kind it is cell-based. On the procedure:
A. In Vitro Testing of mGluR4 Potency
The in vitro activity of the compounds according to the invention may be investigated as follows:
The HEK293 cell overexpressing the human metabotropic Glutamate 4 receptor were thawed at 37° C. and immediately diluted with cell culture medium. After centrifugation, the cell pellet is re-suspended in medium and then distributed from a stirred spinner flask into the wells of the assay plate. The plates are incubated for one hour at room temperature before they are incubated for 24 hours at 37° C./5% C02. After washing the cells in the plate three times with 80 uL HBSS/HEPES buffer (10 uL buffer remained in the wells after washing), 5 uL per well of compounds diluted in HBSS/HEPES buffer containing 0.2% BSA (final concentration: 0.1%) and 1 mM IBMX (final concentration: 0.5 mM) are added to the wells of the assay plate. Thereafter 5 uL per well of L-Glutamic acid (final concentration: 10 uM), forskolin (final concentration: 1 uM) and 1 mM IBMX (final concentration: 0.5 mM) dissolved in HBSS/HEPES buffer containing 0.2% BSA (final concentration: 0.1%) are added to the assay plate (final DMSO concentration: 1%). Several wells of the assay plate are used either for the positive and the negative controls or for the cAMP standard curve. The assay plate is incubated for 30 minutes at room temperature. Then 5 ul per well of Anti-cAMP-Antibody-d2 solution and 5 ul per well of cAMP-Europium Cryptate dilution are added to all wells of the plate and the plate is incubated another 60 minutes light protected at room temperature. The emission at 615 nm and 665 nm (Excitation wavelength: 320 nm) are measured on the EnVision™ reader (PerkinElmer). The ratio between the emission at 665 nm and 615 is calculated by the reader. The whole assay is performed in the dark or under green light.
The cAMP standard is prepared by diluting the cAMP stock solution with HBSS/Hepes buffer: 5 μl/well of the cAMP dilutions (in HBSS/Hepes buffer containing 1 mM IBMX and 0.2% BSA-final concentration: 0.5 mM IBMX and 0.1% BSA) are added to 10 ul/well HBSS/Hepes buffer plus 5 ul/well 4% DMSO in HBSS/Hepes containing 0.2% BSA (final DMSO concentration: 1%-like in the wells containing compounds) in the wells of the assay plate. The final cAMP concentrations in the assay plate were: 0, 0.17, 0.69, 2.78, 11.1, 44.5, 178, and 712 nM (two wells/cAMP concentration).
Each assay microtiter plate contained also wells with vehicle controls instead of compound as controls for L-Glutamic acid induced signal (negative control; 100% CTL; 10 uM L-Glutamic acid+1 uM forskolin+0.5 mM IBMX+1% DMSO) and wells with vehicle controls without L-Glutamic acid as controls for non-specific changes in signal (positive control; 0% CTL; 0 uM L-Glutamic acid+1 uM forskolin+0.5 mM IBMX+1% DMSO).
The analysis of the data is performed by the calculation the ratio between the emission at 665 nm and the emission at 615 nm (Em665/Em615 ratio). Thereafter the signals of the compounds are normalized using the positive and negative controls by the following formula:
PoC=100×((Signal Sample−Positive Control)/(Negative Control−Positive Control))
The compound `Cc1cnc(C(=O)N[C@H](c2nc3c(C)c(C#N)cnc3n2C(C)C)C2CCC2)cn1` [Example 15, N-[(S)-[6-cyano-7-methyl-3-(propan-2-yl)-3H-imidazo[4,5-b]pyridin-2-yl](cyclobutyl)methyl]-5-methylpyrazine-2-carboxamide] registered an IC50 of 6 nM.

On to `Cc1nc(C(F)(F)F)cc2c1nc([C@@H](NC(=O)c1cnc(C(F)F)cn1)C1CC1)n2C(C)C` [Example 22, N-[(S)-cyclopropyl[4-methyl-1-(propan-2-yl)-6-(trifluoromethyl)-1H-imidazo[4,5-c]pyridin-2-yl]methyl]-5-(difluoromethyl)pyrazine-2-carboxamide], for which it took 10 nM to reach half-maximal inhibition (IC50). This IC50 is about 1.7-fold higher than that of the compound before.

Take `CO[C@H](C)[C@H](NC(=O)c1cnc(C)cn1)c1nc2c(C)c(C#N)cnc2n1C(C)C` [Example 42, N-[(1R,2R)-1-[6-cyano-7-methyl-3-(propan-2-yl)-3H-imidazo[4,5-b]pyridin-2-yl]-2-methoxypropyl]-5-methylpyrazine-2-carboxamide]: the 50% inhibitory concentration (IC50) is 21 nM.

`COc1c(Br)cnc2c1nc([C@@H](NC(=O)c1cnc(C)cn1)C1CC1)n2C(C)C` [Example 5, N-[(S)-[6-bromo-7-methoxy-3-(propan-2-yl)-3H-imidazo[4,5-b]pyridin-2-yl](cyclopropyl)methyl]-5-methylpyrazine-2-carboxamide] showed an IC50 of 2 nM. This IC50 lies about 10-fold lower than the previous one.

As for `Cc1cnc(C(=O)N[C@H](c2nc3c(C)c(C#N)cnc3n2C(C)C)[C@@H](C)OC(F)F)cn1` [Example 21, N-[(1R,2R)-1-[6-cyano-7-methyl-3-(propan-2-yl)-3H-imidazo[4,5-b]pyridin-2-yl]-2-(difluoromethoxy)propyl]-5-methylpyrazine-2-carboxamide], the IC50 amounted to 9 nM.

As for `Cc1c(C#N)cnc2c1nc([C@@H](NC(=O)c1cnc(C(F)F)cn1)[C@@H]1CCCO1)n2C(C)C` [Example 36, N-[(R)-[6-cyano-7-methyl-3-(propan-2-yl)-3H-imidazo[4,5-b]pyridin-2-yl][(2S)-oxolan-2-yl]methyl]-5-(difluoromethyl)pyrazine-2-carboxamide], the IC50 was 18 nM. This IC50 is about 2-fold higher than that of the compound before.

For `Cc1cnc(C(=O)N[C@H](c2nc3cc(F)cnc3n2C(C)C)C2CC2)cn1` [Example 44, N-[(S)-cyclopropyl[6-fluoro-3-(propan-2-yl)-3H-imidazo[4,5-b]pyridin-2-yl]methyl]-5-methylpyrazine-2-carboxamide], the IC50 is 26 nM.

In the case of `CO[C@H](C)[C@H](NC(=O)c1cnc(C(F)F)cn1)c1nc2c(C)c(C#N)cnc2n1C(C)C` [Example 19, N-[(1R,2R)-1-[6-cyano-7-methyl-3-(propan-2-yl)-3H-imidazo[4,5-b]pyridin-2-yl]-2-methoxypropyl]-5-(difluoromethyl)pyrazine-2-carboxamide], the IC50 turned out to be 8 nM.

For `Cc1cnc(C(=O)N[C@H](c2nc3c(C)c(C#N)cnc3n2C(C)C)C2CC2)cn1` [Example 28, N-[(S)-[6-cyano-7-methyl-3-(propan-2-yl)-3H-imidazo[4,5-b]pyridin-2-yl](cyclopropyl)methyl]-5-methylpyrazine-2-carboxamide], 6 nM corresponded to half-maximal inhibition (IC50).

The compound `Cc1cnc(C(=O)N[C@H](c2nc3cc(C(F)(F)F)cnc3n2C(C)C)C2CC2)cn1` [Example 3, N-[(S)-cyclopropyl[3-(propan-2-y1)-6-(trifluoromethyl)-3H-imidazo[4,5-b]pyridin-2-y1]methyl]-5-methylpyrazine-2-carboxamide] gave an IC50 of 2 nM.

For the compound `Cc1cnc(C(=O)N[C@H](c2nc3c(C)nc(C(F)(F)F)cc3n2CC(F)F)C2CC2)cn1` [Example 39, N-[(S)-cyclopropyl[1-(2,2-difluoroethyl)-4-methyl-6-(trifluoromethyl)-1H-imidazo[4,5-c]pyridin-2-yl]methyl]-5-methylpyrazine-2-carboxamide], it took 21 nM to reach half-maximal inhibition (IC50).

Consider `Cc1cnc(C(=O)N[C@@H](CC2CC2)c2nc3c(C)c(C#N)cnc3n2C(C)C)cn1` [Example 14, N-[(1S)-1-[6-cyano-7-methyl-3-(propan-2-yl)-3H-imidazo[4,5-b]pyridin-2-yl]-2-cyclopropylethyl]-5-methylpyrazine-2-carboxamide], for which the IC50 is 5 nM.

In turn, `Cc1cnc(C(=O)N[C@H](c2nc3c(C)nc(C(F)(F)F)cc3n2C(C)C)C2CC2)cn1` [Example 16, N-[(S)-cyclopropyl[4-methyl-1-(propan-2-yl)-6-(trifluoromethyl)-1H-imidazo[4,5-c]pyridin-2-yl]methyl]-5-methylpyrazine-2-carboxamide] returned an IC50 of 13 nM.

`COC(C)(C)[C@H](NC(=O)c1cnc(C(F)F)cn1)c1nc2c(C)c(C#N)cnc2n1C(C)C` [Example 1, N-[(1R)-1-[6-cyano-7-methyl-3-(propan-2-yl)-3H-imidazo[4,5-b]pyridin-2-yl]-2-methoxy-2-methylpropyl]-5-(difluoromethyl)pyrazine-2-carboxamide] came in with an IC50 of 1 nM.

In the case of `CO[C@H](C)[C@H](NC(=O)c1cnc(C)cn1)c1nc2cc(Cl)cnc2n1C(C)C` [Example 13, N-[(1R,2R)-1-[6-chloro-3-(propan-2-yl)-3H-imidazo[4,5-b]pyridin-2-yl]-2-methoxypropyl]-5-methylpyrazine-2-carboxamide], the 50% inhibitory concentration (IC50) was 4 nM.

Consider `Cc1c(C#N)cnc2c1nc([C@H](CC1CC1)NC(=O)c1cnc(C(F)F)cn1)n2C(C)C` [Example 11, N-[(1S)-1-[6-cyano-7-methyl-3-(propan-2-yl)-3H-imidazo[4,5-b]pyridin-2-yl]-2-cyclopropylethyl]-5-(difluoromethyl)pyrazine-2-carboxamide], for which half-maximal inhibition (IC50) was put at 4 nM.

`COc1c(C#N)cnc2c1nc([C@@H](NC(=O)c1cnc(C)cn1)C1CC1)n2C(C)C` [Example 31] gave an IC50 of 14 nM. This IC50 is about 3.5-fold higher than that of the compound before.

In turn, `CCn1c([C@@H](NC(=O)c2cnc(C)cn2)C2CC2)nc2c(C)nc(C(F)(F)F)cc21` [Example 45, N-[(S)-cyclopropyl[1-ethyl-4-methyl-6-(trifluoromethyl)-1H-imidazo[4,5-c]pyridin-2-yl]methyl]-5-methylpyrazine-2-carboxamide] had an IC50 of 33 nM.

Take `Cc1cnc(C(=O)N[C@@H](C[C@H]2CCCO2)c2nc3c(C)c(C#N)cnc3n2C(C)C)cn1` [Example 18, N-[(1S)-1-[6-cyano-7-methyl-3-(propan-2-yl)-3H-imidazo[4,5-b]pyridin-2-yl]-2-[(2R)-oxolan-2-yl]ethyl]-5-methylpyrazine-2-carboxamide]: the IC50 was found to be 7 nM.

`CC(C)n1c([C@@H](NC(=O)c2cnc(C(F)F)cn2)C2CC2)nc2cc(C(F)(F)F)ncc21` [Example 27, N-[(S)-cyclopropyl[3-(propan-2-yl)-6-(trifluoromethyl)-3H-imidazo[4,5-c]pyridin-2-yl]methyl]-5-(difluoromethyl)pyrazine-2-carboxamide]: the IC50 came to 31 nM.

Compound `Cc1c(C#N)cnc2c1nc([C@@H](NC(=O)c1cnc(C(F)F)cn1)[C@@H](C)OC(F)F)n2C(C)C` [Example 20, N-[(1R,2R)-1-[6-cyano-7-methyl-3-(propan-2-yl)-3H-imidazo[4,5-b]pyridin-2-yl]-2-(difluoromethoxy)propyl]-5-(difluoromethyl)pyrazine-2-carboxamide] returned an IC50 of 8 nM.

`CO[C@H](C)[C@H](NC(=O)c1cnc(C)cn1)c1nc2cc(C(F)(F)F)cnc2n1C(C)C` [Example 12, N-[(1R,2R)-2-methoxy-1-[3-(propan-2-yl)-6-(trifluoromethyl)-3H-imidazo[4,5-b]pyridin-2-yl]propyl]-5-methylpyrazine-2-carboxamide]: the IC50 was found to be 4 nM.

The compound `O=C(N[C@H](c1nc2cnc(C(F)(F)F)cc2n1CC(F)F)C1CC1)c1cnc(C(F)F)cn1` [Example 46, N-[(S)-cyclopropyl[1-(2,2-difluoroethyl)-6-(trifluoromethyl)-1H-imidazo[4,5-c]pyridin-2-yl]methyl]-5-(difluoromethyl)pyrazine-2-carboxamide] had an IC50 of 41 nM.
